Laboratory results taken from ChEMBL document CHEMBL5728174 (2020).

Key:
[1] = (§1) After a 3-day incubation at 37° C. cell viability was determined by the MTT method as described by Pauwels et al. (J. Virol. Methods 1988, 20, 309-321).To determine the cytotoxicity, cells were seeded at an initial density of 1×10^6 cells/mL in 96 well plates containing Minimum Essential Medium with Earles's salts (MEM-E), L-glutamine, 1 mM sodium pyruvate and 25 mg/L kanamycin, supplemented with 10% fetal bovine serum. Cell cultures were then incubated at 37° C. in a humidified 5% CO2 atmosphere in the absence or presence of serial dilutions of test compounds. Cell viability was determined by the MTT method.; format: cell-based
[2] = as §1; format: cell-based; remark: listed apart in the source

Measured: EC50

CC(C)OC(=O)[C@H](C)N[P@](=O)(OCC1O[C@@H](n2ccc(=O)[nH]c2=O)[C@](C)(F)[C@@H]1O)Oc1ccccc1 (some centres undefined)
> 100 µM: [1] | [1]; 72 h | [2] | [2]; BHK-21, 72 h
